From paper PMC10364322, “Evaluation of chronic drug-induced electrophysiological and cytotoxic effects using human-induced pluripotent stem cell-derived cardiomyocytes (hiPSC-CMs)” (Frontiers in Pharmacology, 2023)
Where two headings read alike, the source gives them in different places.

What was measured:
[1] = free therapeutic Cmax in humans; ref FDA-approved drug packages, PharmaPendium; cited from earlier work
[2] = tested on: hiPSC-CMs (iCell-Cardiomyocytes^2)
Protocol: Cells were seeded according to the instructions of the cell provider, in fibronectin-coated 48-well MEA plates (Axion Cytoview Plates, M768-tMEA-48B) at a density suited to form a monolayer (i.e., 50 K/well) and maintained in culture in a stage incubator (37°C, 5% CO2).
At least 4 h before the beginning of the baseline measurements, a full medium exchange was performed (to a final volume of 400 µL per well). Neat compounds were dissolved in 100% DMSO at a stock concentration 1000-fold the highest target concentration. […] Afterwards, these stock solutions were diluted with Maintenance medium (CDi), to 10-fold the intended concentration. The final DMSO concentration in test solutions and vehicle control was 0.1%.
Spontaneous electrical activity was recorded in hiPSC-CMs monolayers as field potentials using the Maestro Pro MEA instrument (Axion Biosystems, Atlanta, GA, United States), which allows the maintenance of accurate temperature and CO2 levels (37°C, 5% CO2). After the plate was placed in the Maestro Pro and allowed to equilibrate for about 10 min, baseline acquisition of field potential and impedance signals was initiated and lasted for 5 min each. […] As impedance measures resistance of an applied alternating current through the hiPSC-CMs monolayer, a reduction in the attachment of hiPSC-CMs to the bottom of the well due to cell death or changes in the monolayer morphology, causes a drop in the impedance signal.
The potential presence of various arrhythmic events was evaluated and noted during the data analysis.
After the acquisition of all timepoint measurements, raw data were loaded into the data analysis software Axion Cardiac Analysis Tool (V.3.2.3). […] A.csv file containing information on the FP parameters per well, per time point, was then generated and used as input to the in-house data management system (SPEcII v.3.4, Unlimit-IT, Geel, Belgium), where descriptive statistics were calculated. Summary values at different time points after compound addition are expressed as percent change from baseline and shown as mean ± standard deviation (SD).
The nonparametric Wilcoxon-Mann Whitney Test was used to compare the percent change from the baseline (Δ%) value between the group treated with the compound at a given concentration and the group treated with the DMSO at each matching time points. A two-sided test at 5% significance level was considered. […] To assess the physiological relevance of changes, a tolerance interval of DMSO experiments was calculated at each time point, for each parameter. […] TIs indicate an interval where, with a certain confidence level (1- α = 0.95), a specified proportion (p = 0.80) of percent change for DMSO data falls. The lower and upper limits based on the TI values were used as cut-offs for the interpretation of the changes. For the cytotoxicity assays, measurements of fluorescence (after background fluorescence subtraction) from wells treated with the compounds were normalized by the average value of vehicle experiments (DMSO 0.1%) to obtain a DMSO-corrected, delta/delta percent change. Experiments from each condition, as delta/delta percent, were averaged and expressed as mean ± SD. Statistical analysis was performed using a non-parametric test (Kruskal-Wallis) and each treatment condition was compared to the relative DMSO 0.1%. Differences were considered statistically significant when the p-value was smaller than 0.05.

**Q.** Which results are given for COc1cc2c(Nc3ccc(Br)cc3F)ncnc2cc1OCC1CCN(C)CC1 [Vandetanib]?
**A.** Free Cmax [1]: 400 nM; BR (beating rate), % change from baseline ([2]; 0.1 µM, 2h): 0±4%; Beating below threshold, number of observations/total well numbers ([2]; 0.1 µM, 2h): 0/5; Cessation of beating, number of observations/total well numbers ([2]; 0.1 µM, 2h): 0/5; EAD, number of observations/total well numbers ([2]; 0.1 µM, 2h): 0/5; FPDc (field-potential duration corrected by beat-rate), % change from baseline ([2]; 0.1 µM, 2h): 15.3±2.3 %; Flat T-wave-like, number of observations/total well numbers ([2]; 0.1 µM, 2h): 0/5; BR (beating rate), % change from baseline ([2]; 0.1 µM, 24h): -9±5%; Beating below threshold, number of observations/total well numbers ([2]; 0.1 µM, 24h): 0/5; Cessation of beating, number of observations/total well numbers ([2]; 0.1 µM, 24h): 0/5; EAD, number of observations/total well numbers ([2]; 0.1 µM, 24h): 0/5; FPDc (field-potential duration corrected by beat-rate), % change from baseline ([2]; 0.1 µM, 24h): 44.1±5.9 %; Flat T-wave-like, number of observations/total well numbers ([2]; 0.1 µM, 24h): 0/5; BR (beating rate), % change from baseline ([2]; 0.1 µM, 48h): -14±2 %; Beating below threshold, number of observations/total well numbers ([2]; 0.1 µM, 48h): 0/5; Cessation of beating, number of observations/total well numbers ([2]; 0.1 µM, 48h): 0/5; EAD, number of observations/total well numbers ([2]; 0.1 µM, 48h): 0/5; FPDc (field-potential duration corrected by beat-rate), % change from baseline ([2]; 0.1 µM, 48h): 40.3±1.1 %; Flat T-wave-like, number of observations/total well numbers ([2]; 0.1 µM, 48h): 0/5; BR (beating rate), % change from baseline ([2]; 0.1 µM, 72h): -17±2 %; Beating below threshold, number of observations/total well numbers ([2]; 0.1 µM, 72h): 0/5; Cessation of beating, number of observations/total well numbers ([2]; 0.1 µM, 72h): 0/5; EAD, number of observations/total well numbers ([2]; 0.1 µM, 72h): 0/5; FPDc (field-potential duration corrected by beat-rate), % change from baseline ([2]; 0.1 µM, 72h): 52.6±4.9 %; Flat T-wave-like, number of observations/total well numbers ([2]; 0.1 µM, 72h): 0/5; BR (beating rate), % change from baseline ([2]; 0.1 µM, 96h): -19±3%; Beating below threshold, number of observations/total well numbers ([2]; 0.1 µM, 96h): 0/5; Cessation of beating, number of observations/total well numbers ([2]; 0.1 µM, 96h): 0/5; EAD, number of observations/total well numbers ([2]; 0.1 µM, 96h): 0/5; FPDc (field-potential duration corrected by beat-rate), % change from baseline ([2]; 0.1 µM, 96h): 57.6±5.7 %; Flat T-wave-like, number of observations/total well numbers ([2]; 0.1 µM, 96h): 0/5; BR (beating rate), % change from baseline ([2]; 0.3 µM, 2h): -5±4%; Beating below threshold, number of observations/total well numbers ([2]; 0.3 µM, 2h): 0/5; Cessation of beating, number of observations/total well numbers ([2]; 0.3 µM, 2h): 0/5; EAD, number of observations/total well numbers ([2]; 0.3 µM, 2h): 0/5; FPDc (field-potential duration corrected by beat-rate), % change from baseline ([2]; 0.3 µM, 2h): 28.5±9.1 %; Flat T-wave-like, number of observations/total well numbers ([2]; 0.3 µM, 2h): 0/5; BR (beating rate), % change from baseline ([2]; 0.3 µM, 24h): -29±5 %; Beating below threshold, number of observations/total well numbers ([2]; 0.3 µM, 24h): 0/5; Cessation of beating, number of observations/total well numbers ([2]; 0.3 µM, 24h): 0/5; EAD, number of observations/total well numbers ([2]; 0.3 µM, 24h): 1/5; FPDc (field-potential duration corrected by beat-rate), % change from baseline ([2]; 0.3 µM, 24h): 112±14.9 %; Flat T-wave-like, number of observations/total well numbers ([2]; 0.3 µM, 24h): 1/5; BR (beating rate), % change from baseline ([2]; 0.3 µM, 48h): -31±2 %; Beating below threshold, number of observations/total well numbers ([2]; 0.3 µM, 48h): 0/5; Cessation of beating, number of observations/total well numbers ([2]; 0.3 µM, 48h): 0/5; EAD, number of observations/total well numbers ([2]; 0.3 µM, 48h): 0/5; FPDc (field-potential duration corrected by beat-rate), % change from baseline ([2]; 0.3 µM, 48h): 99.2±21.9 %; Flat T-wave-like, number of observations/total well numbers ([2]; 0.3 µM, 48h): 1/5; BR (beating rate), % change from baseline ([2]; 0.3 µM, 72h): -40±3 %; Beating below threshold, number of observations/total well numbers ([2]; 0.3 µM, 72h): 0/5; Cessation of beating, number of observations/total well numbers ([2]; 0.3 µM, 72h): 0/5; EAD, number of observations/total well numbers ([2]; 0.3 µM, 72h): 0/5; FPDc (field-potential duration corrected by beat-rate), % change from baseline ([2]; 0.3 µM, 72h): 126.3±24.4 %; Flat T-wave-like, number of observations/total well numbers ([2]; 0.3 µM, 72h): 1/5; BR (beating rate), % change from baseline ([2]; 0.3 µM, 96h): -43±6 %; Beating below threshold, number of observations/total well numbers ([2]; 0.3 µM, 96h): 0/5; Cessation of beating, number of observations/total well numbers ([2]; 0.3 µM, 96h): 0/5; EAD, number of observations/total well numbers ([2]; 0.3 µM, 96h): 0/5; FPDc (field-potential duration corrected by beat-rate), % change from baseline ([2]; 0.3 µM, 96h): 144.1±35.5 %; Flat T-wave-like, number of observations/total well numbers ([2]; 0.3 µM, 96h): 1/5; BR (beating rate), % change from baseline ([2]; 1 µM, 2h): -28±5 %; Beating below threshold, number of observations/total well numbers ([2]; 1 µM, 2h): 0/5; Cessation of beating, number of observations/total well numbers ([2]; 1 µM, 2h): 0/5; EAD, number of observations/total well numbers ([2]; 1 µM, 2h): 0/5
